Values quoted from earlier work in US20160128943A1, “CONTROLLED RELEASE CAFFEINE DOSAGE FORMS” (priority 2013, published 2016).

Legend:
[1] = test system: central nervous system; details: after absorption

For `Cn1c(=O)c2c(ncn2C)n(C)c1=O` [caffeine], the “time to peak levels in the circulation of the bloodstream” value (after consumption) is listed as “fifteen and forty-five”, the average half-life (average person, after ingestion) is listed as “three and one half” and the “time to maximum effect of central nervous system stimulation” value [1] is listed as “thirty and sixty”.
